Here are results for one molecule from patent US20090291877A1, “TREATMENTS USING CITRULLINE” (priority 2006, published 2009).

Series [1] is described as follows: Plasma nitrotyrosine during 72-h intravenous infusion in ICU patients with severe sepsis/septic shock. Type of series: in vivo, human. The conditions noted are these: 72-h i.v. infusion, compared with placebo. On the procedure:
(§1) Methods: According to a placebo-controlled double-blind study design, ICU patients with severe sepsis/septic shock (<48 h; APACHE II scores between 18-41) were randomized in a group treated with intravenous 72-h L-arginine-HCl (1.2 μmol/kg·min, n=9) or isocaloric L-alanine (placebo; n=9). All patients were treated with norepinephrine in a range between […] at the start of study. Haemodynamics were recorded at 2-h intervals throughout the protocol. Blood was sampled at baseline and at 24-h intervals and analysed for plasma nitrotyrosine levels. Repeated measurements ANOVA was used; data are means±SEM.

Series [2] is described as follows: Haemodynamics (MAP, systemic blood pressure, norepinephrine dose) during 72-h intravenous infusion in ICU patients with severe sepsis/septic shock. It counts as in vivo, human. The note with it: for MAP: i.v. L-arginine-HCl 1.2 μmol/kg·min, mean ± SEM. On the procedure:
as §1

For series [3] the following is noted: hemodialysis patients, pre versus post dialysis run; cited from earlier work.

Take `Cl.N=C(N)NCCC[C@H](N)C(=O)O` [ARG, L-arginine-HCl]: the “Plasma nitrotyrosine (oxidative effect on plasma proteins), arginine versus placebo” value in series [1] (listed as Arginine) is “does not enhance”; in series [1] (listed as arginine), “did not differ”. For the same molecule, the “Norepinephrine dose, arginine versus placebo” value in series [2] (72-h i.v. infusion, compared with placebo) is reported as “No significant differences”. Further, the “Systemic blood pressure, arginine versus placebo” value in series [2] (72-h i.v. infusion, compared with placebo, listed as Arginine) was “does not affect”; in series [2] (72-h i.v. infusion, compared with placebo, listed as arginine) it was “No significant differences”. For the same molecule, the MAP in series [2] (24 h) is listed as 81 ± 3 mmHg; in series [2] (48 h), 85 ± 4 mmHg; in series [2] (72 h), 84 ± 5 mmHg; in series [2] (Baseline), 82 ± 4 mmHg. In series [3], the “Decrease of level during dialysis treatment” value is reported as 36%.
